Experimental data from patent publication US9820483B2, “Microbial composition” (Rohm and Haas Company, priority 2011, dated 2017).

Experiments:
[1] = test system: S. aureus ATCC 6538; test: Synergy of terpinyl alcohols with phenolic compounds in water, 15 seconds contact, plate count log reduction; format: cell-based, Staphylococcus aureus; details: […] alone
Procedure: Liquid actives were used directly. Solid actives were dissolved in alcohol and a 50% stock was made.
The culture was grown overnight in Tryptone soya agar. It was suspended in saline (0.85% NaCl) to a con. of 1.5×10^8-5×10^8 cells/ml
To 9 ml water the actives were added to give the desired concentration. 1 ml of the culture was added and mixed. After 15 seconds contact 1 ml aliquot was removed and added to a neutraliser and kept for 5 minutes. A control of untreated cells was similarly processed. It was then diluted and plated. The plates were incubated at 37° C. for 24 hours. The colonies on the plates were counted. The counts were converted to log10. The log. no. of survivors was determined and log reduction calculated.

[2] = test system: Staphylococcus aureus (10788 strain); test: Antimicrobial efficacy of actives against S. aureus in water, 15 seconds contact, NMBS; format: cell-based
Procedure: Selected materials were also tested against a representative Gram positive Staphylococcus aureus.
The following assay describes the testing of 8 materials using 6 dilutions across half of a 96-well micro titre plate (MTP). Using this approach it is possible to assay 16 actives (without replicates) with one full dilution plate, replicating this set up in two halves of the plate columns, 1-6 and 7-12.
Bacterial stock (30 μl) was then added to the prepared 270 μl of the solution of actives in the Screening Plate and mixed, using a multichannel pipette with 8 tips to aspirate and dispense the same volume of bacterial stock in parallel to 8 wells in rows A-H. After a contact time of 15 seconds, the mixtures were quenched by transferring 30 μl volumes of the mixtures into the 270 μl D/E neutralising solution in the prepared dilution plate, using aspiration to mix. After exactly 5 minutes in the D/E neutralising solution, […] were transferred from column 1 to column 2 of the Dilution MTP and mixed, before transferring further 30 μl volumes from column 2 into column 3. This process was repeated serially diluting the bacteria across the plate to column 6.
30 μl volumes from each well in the Dilution MTP were transferred onto pre-labelled segment of Tryptone Soya Agar (TSA) plates starting from the lowest bacterial concentration (highest dilution, column 6) to the highest bacterial concentration (column 1). The TSA plates were allowed to stand for ca. 2 hours so that the 30 μl inocula spots could dry and the plates were then inverted and incubated overnight at 37° C. before enumerating the bacterial colonies at the labelled dilutions to determine the effects of the actives on bacterial growth.
Mean bacterial survival numbers NMBS (expressed in Log CFU/ml) are obtained by first determining the segment of the TSA plate where the number of bacterial colonies is countable. From the colony number in this segment. NMBS is calculated by the formula: NMBS=log {Ncol·10^DF·100/3} Here, Ncol is the colony count, and DF is the dilution factor taken from the MTP-well corresponding to the TSA plate segment (i.e. DF may range from 1 for the quench, to 6 for the highest dilution). The factor 100/3 is a conversion factor from the volume of the inocula spot to one milliliter.
Every assay test was performed in triplicate.
Thus, a value of NMBS as of about 7 corresponds to a count of about […] from the fifth dilution well, i.e. with DF=5. Such a count of about 7 is generally observed when bacteria are exposed to non-biocidal materials. In case no surviving colonies are observed in any segment of the TSA plate, this is interpreted as complete kill and a value of NMBS=0 is reported.
S. aureus Bacterial stock was prepared as shown below and the antibacterial efficacy of the active was carried out as explained earlier for E. Coli.
An overnight culture of Staphylococcus aureus (10788 strain) was inoculated onto a Tripticase Soy Agar (TSA) plate and grown for ca. 18 hrs at 37° C. The culture of S. aureus was washed from the plate using sterile saline (0.85% NaCl) solution and a sterile spreader and suspended in 50 ml saline. This suspension was separated into equal volumes and centrifuged at 4000 rpm for 15 minutes. Following centrifugation the pellet was re-suspended in saline to give a final concentration of 0.35 OD620 equivalent to about 10^8 cells per milliliter for this particular organism. Here. OD620 indicates the absorbance of a sample in a cuvette of 1.0 cm path length at a wavelength of 620 nm. This bacterial stock was used for assaying against antimicrobial actives (in triplicate).

With `C=C(C)C1CCC(C)C(O)C1` (stereo not drawn) [2-methyl-5-(prop-1-en-2-yl)cyclohexanol] the “Log reduction S. aureus ATCC 6538” value [1] was −0.15, the NMBS ([2]; 0.5% w/v alone, S. aureus, 15 s) was 7.34 log CFU/ml and the MBC ([2]; component alone, against S. aureus, in water) was over 1.5 % w/v.
